Legend:
[1] = molecular target: T1, DNA polymerase theta (Homo sapiens, UniProt O75417)
[2] = molecular target: Cytochrome P450 3A4 (Homo sapiens, UniProt P08684); assay: Inhibition of CYP3A4 in human liver microsomes using midazolam as substrate incubated for 10 mins in presence of NADPH by LC-MS/MS analysis; assay type: ADME, Microsome
[3] = molecular target: Cytochrome P450 2D6 (Homo sapiens, UniProt P10635); assay: Inhibition of CYP2D6 in human liver microsomes using dextromethorphan as substrate incubated for 10 mins in presence of NADPH by LC-MS/MS analysis; assay type: ADME, Microsome
Chain of Cytochrome P450 2D6 (P10635 whole entry): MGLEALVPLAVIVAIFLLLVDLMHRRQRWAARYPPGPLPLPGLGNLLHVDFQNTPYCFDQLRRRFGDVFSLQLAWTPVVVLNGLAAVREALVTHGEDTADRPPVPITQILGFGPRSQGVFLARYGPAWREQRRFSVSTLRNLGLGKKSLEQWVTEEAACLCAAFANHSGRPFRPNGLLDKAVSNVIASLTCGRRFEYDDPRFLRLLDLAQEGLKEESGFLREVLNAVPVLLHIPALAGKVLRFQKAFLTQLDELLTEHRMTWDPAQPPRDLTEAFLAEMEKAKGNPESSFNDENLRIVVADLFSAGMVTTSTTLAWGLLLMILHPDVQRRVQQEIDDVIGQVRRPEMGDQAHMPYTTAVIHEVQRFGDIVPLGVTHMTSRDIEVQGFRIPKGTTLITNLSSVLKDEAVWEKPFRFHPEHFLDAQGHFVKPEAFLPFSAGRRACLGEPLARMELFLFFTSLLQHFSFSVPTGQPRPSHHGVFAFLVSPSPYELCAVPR

[4] = molecular target: Cytochrome P450 2C9 (Homo sapiens, UniProt P11712); assay: Inhibition of CYP2C9 in human liver microsomes using diclofenac as substrate incubated for 10 mins in presence of NADPH by LC-MS/MS analysis; assay type: ADME, Microsome
Chain of Cytochrome P450 2C9 (P11712 whole entry): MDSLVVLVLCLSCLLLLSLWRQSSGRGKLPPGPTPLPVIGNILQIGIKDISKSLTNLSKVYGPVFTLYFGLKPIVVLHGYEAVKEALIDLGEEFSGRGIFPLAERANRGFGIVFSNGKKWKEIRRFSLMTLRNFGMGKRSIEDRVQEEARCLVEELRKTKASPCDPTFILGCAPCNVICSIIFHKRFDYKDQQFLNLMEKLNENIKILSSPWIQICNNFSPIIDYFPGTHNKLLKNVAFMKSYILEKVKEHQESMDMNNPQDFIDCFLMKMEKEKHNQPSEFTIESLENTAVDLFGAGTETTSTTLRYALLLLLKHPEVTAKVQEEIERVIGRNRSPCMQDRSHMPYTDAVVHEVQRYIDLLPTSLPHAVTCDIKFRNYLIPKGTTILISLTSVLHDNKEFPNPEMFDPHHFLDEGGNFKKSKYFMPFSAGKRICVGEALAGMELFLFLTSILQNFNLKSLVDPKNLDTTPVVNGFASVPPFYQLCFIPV

[5] = molecular target: Cytochrome P450 2C19 (Homo sapiens, UniProt P33261); assay: Inhibition of CYP2C19 in human liver microsomes using S-mephenytoin as substrate incubated for 10 mins in presence of NADPH by LC-MS/MS analysis; assay type: ADME, Microsome
Chain of Cytochrome P450 2C19 (P33261 whole entry): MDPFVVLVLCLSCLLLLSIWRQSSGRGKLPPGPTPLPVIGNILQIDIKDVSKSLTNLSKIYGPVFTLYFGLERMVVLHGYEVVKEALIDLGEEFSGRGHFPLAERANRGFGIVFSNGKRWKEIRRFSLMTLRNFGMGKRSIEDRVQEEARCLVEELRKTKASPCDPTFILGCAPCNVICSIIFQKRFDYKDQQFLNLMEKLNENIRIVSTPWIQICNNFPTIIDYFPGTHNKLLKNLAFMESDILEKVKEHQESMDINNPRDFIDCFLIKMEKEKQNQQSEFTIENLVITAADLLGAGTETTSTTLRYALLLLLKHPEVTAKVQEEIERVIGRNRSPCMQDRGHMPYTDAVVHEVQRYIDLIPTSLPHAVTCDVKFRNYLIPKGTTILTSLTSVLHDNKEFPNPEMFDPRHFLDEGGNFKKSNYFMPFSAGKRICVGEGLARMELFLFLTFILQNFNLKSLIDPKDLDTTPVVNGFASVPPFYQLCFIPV

[6] = molecular target: T2, Cytochrome P450 1A2 (Homo sapiens, UniProt P05177); assay: Inhibition of CYP1A2 in human liver microsomes using phenacetin as substrate incubated for 10 mins in presence of NADPH by LC-MS/MS analysis; assay type: ADME, Microsome
T2 sequence (P05177 whole entry): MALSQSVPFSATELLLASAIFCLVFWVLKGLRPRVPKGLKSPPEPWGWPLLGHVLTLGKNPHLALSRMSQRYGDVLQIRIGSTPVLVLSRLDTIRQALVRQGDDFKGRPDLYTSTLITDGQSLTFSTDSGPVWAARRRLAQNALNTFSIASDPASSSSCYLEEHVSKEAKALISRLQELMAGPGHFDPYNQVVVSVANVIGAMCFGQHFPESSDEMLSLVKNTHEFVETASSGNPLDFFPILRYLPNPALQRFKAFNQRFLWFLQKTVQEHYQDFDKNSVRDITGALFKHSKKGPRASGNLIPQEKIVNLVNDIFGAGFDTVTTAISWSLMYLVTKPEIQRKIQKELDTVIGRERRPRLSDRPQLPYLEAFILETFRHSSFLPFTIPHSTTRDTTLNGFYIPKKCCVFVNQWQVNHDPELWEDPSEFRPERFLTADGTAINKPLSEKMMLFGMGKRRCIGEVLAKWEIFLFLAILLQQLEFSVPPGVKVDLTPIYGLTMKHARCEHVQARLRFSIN

[7] = molecular target: T1, DNA polymerase theta; assay: Inhibition of DNA polymerase theta mediated TMEJ repair activity in human HEK293T cells transfected with TMEJ reporter incubated for 24 hrs by Nano-glo luciferase assay; assay type: cell-based
[8] = tested on: DLD-1; assay: Antiproliferative activity against BRCA2 deficient human DLD-1 cells assessed as inhibition of cell growth incubated for 7 days by Cell-titer glo luminescence assay; assay type: functional, cell-based; conditions: DLD-1, 168 h

T1 sequence (O75417 whole entry): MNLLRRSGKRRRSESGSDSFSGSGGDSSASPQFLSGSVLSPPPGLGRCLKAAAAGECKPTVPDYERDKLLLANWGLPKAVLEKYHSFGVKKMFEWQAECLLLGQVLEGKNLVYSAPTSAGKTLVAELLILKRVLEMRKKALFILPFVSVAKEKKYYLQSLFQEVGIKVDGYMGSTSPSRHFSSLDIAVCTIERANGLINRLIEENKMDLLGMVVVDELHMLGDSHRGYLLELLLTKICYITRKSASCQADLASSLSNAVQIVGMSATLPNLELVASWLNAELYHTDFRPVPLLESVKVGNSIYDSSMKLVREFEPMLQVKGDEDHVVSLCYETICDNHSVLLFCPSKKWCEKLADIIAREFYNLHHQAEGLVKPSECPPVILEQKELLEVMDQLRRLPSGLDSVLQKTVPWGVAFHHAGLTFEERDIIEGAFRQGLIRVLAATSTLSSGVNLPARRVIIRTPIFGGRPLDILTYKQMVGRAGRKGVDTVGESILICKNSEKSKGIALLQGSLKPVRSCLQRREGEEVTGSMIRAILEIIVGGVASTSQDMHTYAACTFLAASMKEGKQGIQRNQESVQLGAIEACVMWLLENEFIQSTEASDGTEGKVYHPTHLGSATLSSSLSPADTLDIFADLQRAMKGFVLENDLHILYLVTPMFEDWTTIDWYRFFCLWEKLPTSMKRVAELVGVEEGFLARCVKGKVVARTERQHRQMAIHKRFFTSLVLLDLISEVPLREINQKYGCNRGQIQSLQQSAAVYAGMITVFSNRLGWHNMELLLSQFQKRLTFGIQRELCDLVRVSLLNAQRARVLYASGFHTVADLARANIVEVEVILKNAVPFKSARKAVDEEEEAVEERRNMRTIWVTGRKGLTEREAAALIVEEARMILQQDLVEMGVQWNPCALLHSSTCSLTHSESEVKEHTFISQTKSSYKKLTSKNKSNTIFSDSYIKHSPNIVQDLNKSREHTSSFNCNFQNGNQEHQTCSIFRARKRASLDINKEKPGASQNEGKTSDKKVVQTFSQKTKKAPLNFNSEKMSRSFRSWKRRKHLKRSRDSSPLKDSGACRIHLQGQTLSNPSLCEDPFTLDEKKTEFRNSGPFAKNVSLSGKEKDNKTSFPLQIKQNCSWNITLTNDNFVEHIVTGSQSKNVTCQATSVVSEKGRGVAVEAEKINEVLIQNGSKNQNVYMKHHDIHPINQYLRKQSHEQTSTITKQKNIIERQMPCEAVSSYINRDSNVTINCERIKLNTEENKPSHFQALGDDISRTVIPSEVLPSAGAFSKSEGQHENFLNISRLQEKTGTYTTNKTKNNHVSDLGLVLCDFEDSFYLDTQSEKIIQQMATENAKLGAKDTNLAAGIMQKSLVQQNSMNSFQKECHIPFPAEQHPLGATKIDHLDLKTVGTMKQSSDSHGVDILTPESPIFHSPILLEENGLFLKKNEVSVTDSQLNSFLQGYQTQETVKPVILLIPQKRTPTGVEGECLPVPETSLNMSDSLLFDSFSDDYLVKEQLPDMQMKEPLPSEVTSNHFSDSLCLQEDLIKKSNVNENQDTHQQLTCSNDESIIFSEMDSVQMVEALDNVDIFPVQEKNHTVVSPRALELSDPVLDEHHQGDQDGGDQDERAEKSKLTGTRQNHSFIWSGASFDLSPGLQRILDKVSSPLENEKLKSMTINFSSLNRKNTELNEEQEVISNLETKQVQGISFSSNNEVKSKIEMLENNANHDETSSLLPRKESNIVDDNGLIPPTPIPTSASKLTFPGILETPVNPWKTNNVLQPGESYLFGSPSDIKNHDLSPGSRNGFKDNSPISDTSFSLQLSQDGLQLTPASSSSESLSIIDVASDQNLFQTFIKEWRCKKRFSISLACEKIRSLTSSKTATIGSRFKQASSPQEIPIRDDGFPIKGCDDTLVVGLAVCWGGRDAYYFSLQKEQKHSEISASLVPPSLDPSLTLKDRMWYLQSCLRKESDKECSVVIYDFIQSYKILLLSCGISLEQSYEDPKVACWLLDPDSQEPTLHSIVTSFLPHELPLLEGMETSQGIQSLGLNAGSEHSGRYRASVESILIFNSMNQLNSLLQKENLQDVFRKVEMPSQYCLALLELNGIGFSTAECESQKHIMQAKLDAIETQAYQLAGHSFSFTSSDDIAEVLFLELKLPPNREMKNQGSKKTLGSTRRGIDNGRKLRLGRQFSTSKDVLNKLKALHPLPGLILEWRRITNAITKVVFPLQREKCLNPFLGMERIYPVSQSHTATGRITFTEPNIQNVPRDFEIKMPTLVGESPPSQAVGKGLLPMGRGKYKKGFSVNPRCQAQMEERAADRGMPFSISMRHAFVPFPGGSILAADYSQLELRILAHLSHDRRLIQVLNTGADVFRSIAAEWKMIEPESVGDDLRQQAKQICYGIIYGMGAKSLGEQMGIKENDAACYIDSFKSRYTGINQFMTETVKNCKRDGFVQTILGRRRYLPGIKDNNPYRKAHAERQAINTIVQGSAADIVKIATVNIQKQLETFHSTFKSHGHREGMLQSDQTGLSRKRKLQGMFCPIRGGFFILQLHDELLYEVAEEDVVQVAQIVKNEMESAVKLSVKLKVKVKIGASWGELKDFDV
Chain of Cytochrome P450 3A4 (P08684 whole entry): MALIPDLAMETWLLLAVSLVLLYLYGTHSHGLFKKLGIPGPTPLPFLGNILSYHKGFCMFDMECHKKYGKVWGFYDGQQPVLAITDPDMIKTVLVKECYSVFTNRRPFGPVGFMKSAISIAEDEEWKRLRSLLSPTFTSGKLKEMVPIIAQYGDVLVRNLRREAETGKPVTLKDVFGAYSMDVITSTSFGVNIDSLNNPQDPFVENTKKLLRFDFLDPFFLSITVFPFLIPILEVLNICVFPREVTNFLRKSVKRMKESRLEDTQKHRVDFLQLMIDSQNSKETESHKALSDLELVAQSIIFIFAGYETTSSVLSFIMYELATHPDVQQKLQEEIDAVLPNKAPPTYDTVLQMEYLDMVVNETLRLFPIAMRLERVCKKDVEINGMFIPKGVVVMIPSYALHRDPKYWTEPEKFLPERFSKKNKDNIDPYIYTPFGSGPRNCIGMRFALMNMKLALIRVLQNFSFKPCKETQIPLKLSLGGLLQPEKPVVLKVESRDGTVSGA

Row | Structure (SMILES) | IC50 [1] | further results
1 | Cc1cc(C(F)(F)F)cc(N2C(=O)C[C@H]2C(=O)N(C)c2ccc(F)c(Cl)c2)n1 | 41.3 nM | –
2 | [2H]C([2H])([2H])N(C(=O)[C@@H]1[C@H](CO)CN1c1nc(C)cc(C(F)(F)F)c1C#N)c1ccc(F)c(Cl)c1 | – | IC50 [2]: 14600 nM; IC50 [3]: 17300 nM; IC50 [4]: 3100 nM; IC50 [5]: 770 nM; IC50 [6]: > 50000 nM
3 | Cc1cc(C(F)(F)F)c(C#N)c(N2C(=O)C[C@H]2C(=O)N(C)c2ccc(F)c(Cl)c2)n1 | 858 nM | –
4 | Cc1cc(C(F)(F)F)c(C#N)c(N2CC[C@@H](O)[C@H]2C(=O)N(C)c2ccc(F)c(Cl)c2)n1 | 7.9 nM | IC50 [7]: 160 nM; IC50 [8]: 5500 nM
5 | Cc1cc(C(F)(F)F)cc(N2CCOC[C@H]2C(=O)N(C)c2ccc(F)c(Cl)c2)n1 | 3890 nM | –
6 | Cc1cc(C(F)(F)F)c(C#N)c(N2C[C@@H](CCl)[C@H]2C(=O)N(C)c2ccc(F)c(Cl)c2)n1 | 923 nM | –
7 | Cc1cc(C(F)(F)F)cc(N2CC[C@H]2C(=O)N(C)c2ccc(F)c(Cl)c2)n1 | 221 nM | –
8 | Cc1cc(C(F)(F)F)c(C#N)c(N2CC[C@H]2C(=O)N(C)c2ccc(F)c(Cl)c2)n1 | 104 nM | –
